{"source": "paper PMC9152369", "about": "“Integrated UPLC-Q-TOF-MS/MS and Network Pharmacology Approach to Investigating the Metabolic Profile of Marein of Coreopsis tinctoria Nutt” (Evidence-based Complementary and Alternative Medicine : eCAM, 2022)", "key": {"[1]": {"assay": "Detection of marein and metabolites in rat plasma and urine after oral administration (UPLC-Q-TOF-MS/MS)", "assay_type": "in vivo, Sprague–Dawley rats", "set-up": "key to Location (matrix in which the metabolite was detected): P: plasma; U: urine", "conditions": "for Location (matrix in which the metabolite was detected): oral gavage of marein 200 mg/kg, plasma 0-1 h, urine 24 h", "protocol": "(§1) Forty-eight healthy male Sprague–Dawley rats, SPF grade, weighing 250 ± 10 g, were purchased from Huafukang Laboratory Animal Technology Co. Ltd. (Beijing, China). Before use, all animals were reared for 5 days at a constant temperature of 25°C, a humidity of 40–60%, and a 12-hour light-dark cycle.\nAfter adaptive feeding for 1 week, 24 SD rats were randomly divided into 4 groups: blank blood sample group, blank urine group, marein blood sample group, and marein urine group. The experimental animals were fasted 12 hours before the administration and free drinking water. Marein was dissolved with an appropriate amount of CMC-Na solution and was administered to SD rats by gavage at a dose of 200 mg/kg. The blank blood sample group was given an equal volume of CMC-Na solution.\n(§2) Blood samples were collected from the fundus venous plexus of rats at 0, 0.08, 0.25, 0.5, and 1 h before and after gavage and injection. The blood samples were centrifuged (9,900 g, 10 min) to obtain plasma samples. All plasma samples were stored at −80°C until they were processed and analyzed.\n(§3) Urine samples were collected for 24 hours by gavage and injection in a metabolic cage. All urine samples were stored at −80°C until they were processed and analyzed.\n(§4) Take 100 μL of plasma from each group at the same time point and combine, add 900 μL of acetonitrile, vortex for 3 min, and centrifuge (4°C, 19,500 g) for 10 min. Take the supernatant, blow-dry, and concentrate and then add 900 μL of acetonitrile. Vortex for 3 minutes and then centrifuge (4°C, 19,500 g) for 10 minutes. Take the supernatant, dry it with nitrogen, and concentrate. Add 100 μL of 50% methanol to reconstitute the residue (methanol:water = 1:1), vortex, and centrifuge (4°C, 19,500 g) for 10 minutes. The supernatant was taken and analyzed by UPLC-Q-TOF-MS/MS. The blank plasma sample was processed in the same way.\n(§5) Take 400 μL of urine, add 800 μL of methanol, vortex for 3 minutes, and centrifuge (4°C, 19,500 g) for 10 minutes. Take the supernatant, blow-dry, and concentrate and then add 800 μL of methanol to reconstitute, vortex for 3 minutes, and centrifuge (4°C, 19,500 g) for 10 minutes. In parallel, the supernatants were combined, dried, concentrated with nitrogen, and finally reconstituted with 100 μL 50% methanol (methanol:water = 1:1). The supernatant was analyzed by UPLC-Q-TOF-MS/MS. The blank urine sample was processed in the same way.\nUsed UPLC-Q-TOF-MS/MS 9030 system (Shimadzu, Japan), chromatography column: Shim-pack GISS C18 column (100 × 2.1 mm, 1.9 μm). […]\n(§6) The data obtained by UPLC-Q-TOF-MS/MS were analyzed with Formula Predictor Server software. Target fragments are analyzed by ACD/Labs software accurate mass calculator (Shimadzu City, Japan)."}, "[2]": {"assay": "Detection of marein and metabolites in rat plasma and urine after tail vein injection (UPLC-Q-TOF-MS/MS)", "assay_type": "in vivo, Sprague–Dawley rats", "set-up": "key to Location (matrix in which the metabolite was detected): P: plasma; U: urine", "conditions": "for Location (matrix in which the metabolite was detected): tail vein injection of marein 10 mg/kg, plasma 0-1 h, urine 24 h; for prototype components after tail vein injection: tail vein injection 10 mg/kg", "protocol": "as §1\nAfter adaptive feeding of 24 SD rats for 1 week, they were randomly divided into 4 groups, namely: blank blood sample group, blank urine group, marein blood sample group, and marein urine group. The experimental animals were fasted 12 hours before the administration and free drinking water. Marein was dissolved in appropriate amounts of saline and administered to SD rats via tail vein injection at a dose of 10 mg/kg. The blank group was injected with an equal volume of saline through the tail vein.\nas §2, §3, §4, §5\n(§7) Used UPLC-Q-TOF-MS/MS 9030 system (Shimadzu, Japan), chromatography column: Shim-pack GISS C18 column (100 × 2.1 mm, 1.9 μm). Mobile phase: A phase 0.1% formic acid water, B phase acetonitrile, gradient elution, elution gradient: 0∼1 min, 5∼10% B; 1∼2 min, 10% B; 2∼3 min, 10∼15% B; 3∼5 min, 15∼20% B; 5∼11 min, 20∼40% B; 11∼13 min, 40∼80% B; 13∼15 min, 80∼95% B; 15∼17 min, 95% B; 17∼20 min, 5% B. Flow rate: 0.3 mL/min; column temperature: 40°C.\n(§8) MS operation conditions were as follows. The Q-TOF-MS spectrometer was configured with an electrospray ion source (ESI) operating in the negative and positive ion modes. Ion source interface voltage is −3.0 Kv. Nitrogen is used as the drying gas and the atomizing gas. The drying gas flow rate is set to 10 L/min, and the atomizing gas flow rate is set to 3.0 L/min. Air is used as heating gas, and the flow rate is set to 10 L/min; argon is used as collision gas; desolvent tube temperature is 250°C; heating block temperature is 400°C; and interface temperature is 300°C. Scan modes are MS Scan (m/z 100–500; 500–1,000) and MS/MS (m/z 50–500; 50–1,000). The collision energy (CE) is 35 ± 17 V.\nas §6"}, "[3]": {"assay": "Metabolic stability of marein in rat liver microsome incubation", "assay_type": "in vitro ADME", "conditions": "for Area% (remaining percentage): 37°C, NADPH", "protocol": "The total volume of the incubation system is 500 μL, including phosphate buffer (0.1 M, pH 7.4) 470 μL, and NADPH generating system 30 μL (Solution A: 25 μL and Solution B: 5 μL). The process is completed on an ice bath.\nMarein blank control group: Take the above incubation system, add 5 μL of aqueous solution to an ice bath, incubate at 37°C for 5 min, and then add 15 μL of liver microsomes to the ice bath. After gently mixing the incubation system by hand, start the incubation at 37°C in a water bath. The incubation time is 0, 5, 15, 30, 45, 60, 90, and 120 min, and each sample is paralleled 3 times. When the reaction is complete, stop the reaction with the same volume of ice acetonitrile to completely precipitate the protein, centrifuge at 4,200 g for 10 min, aspirate the supernatant and centrifuge at 19,500 g for 10 min, and inject 2 μL for analysis.\nMarein inactivated liver microsomes group: First inactivate liver microsomes, take the incubation system, add 5 μL of the marein reference substance stock solution on an ice bath, incubate at 37°C for 5 min, and then add 15 μL of inactivation to the ice bath. The following procedures were similar to the blank control group.\nMarein liver microsomes group: Take the incubation system, add 5 μL of the marein reference substance stock solution to an ice bath, incubate at 37°C for 5 min, and then add 15 μL of liver microsomes to the ice bath. The following operation was the same as the blank control group.\nas §7, §8\nIn the study of metabolism in vivo, the injection volume was 5 μL, while that in vitro metabolism was 2 μL.\nIn the liver microsomes study, the 0 min peak area of marein was regarded as 100%, and other time points were compared with the 0 min peak area to obtain the remaining percentage (area%). According to the natural logarithm of area% and incubation, the time slope k was obtained by linear regression. According to formula (1), the half-life t1/2/min of marein in liver microsomes could be obtained. According to formulas (2)–(5), the half-lives in liver microsomes, intrinsic clearance rate CLint, in vivo intrinsic clearance rate CL′int, liver clearance rate CLH, and liver extraction rate ER were calculated.(1) t1/2=−0.693/k, (2) CLint=0.693/t1/2incubationmL/microsomesmg, (3) CLint′=0.693/t1/2·incubationmL/microsomesmg·Liverg/BWkg·microsmesmg/Liverg, (4) CLH=Q·CLint′/Q+CLint′, (5) ER=CLH/Q.\nThe physical and chemical parameters: The liver tissue per kilogram of body weight for rat (Liver (g)/BW (kg)) was 40 g. Q is hepatic blood flow (66 ml/min/kg for rat), and CL′int is the intrinsic clearance. The microsomal protein per gram of liver tissue (microsomes (mg)/liver (g)) was 45 mg."}, "[4]": {"set-up": "method as in PMID 27387397", "conditions": "healthy volunteers, tea of C. tinctoria; cited from earlier work"}}, "note": "“And” between values parts separate entries of the source, which are not always exact repeats. Equal entries are not always repeated. “Also recorded” adds a separate entry of the source.", "data": [{"smiles": "O=c1cc(-c2ccc(O)c(O)c2)oc2c(O)c(O[C@@H]3O[C@H](CO)[C@@H](O)[C@H](O)[C@H]3O)ccc12", "note": "[M13]", "values": [{"measurement": "Location (matrix in which the metabolite was detected)", "setting": "[1]", "result": "P"}, {"measurement": "Location (matrix in which the metabolite was detected)", "setting": "[2]; listed as M′10", "result": "P, U"}]}, {"smiles": "O=C(/C=C/c1ccc(O)c(O)c1)c1ccc(O)c(O)c1O", "note": "[M24, okanin]", "values": [{"measurement": "Location (matrix in which the metabolite was detected)", "setting": "[1]", "result": "P"}, {"measurement": "Location (matrix in which the metabolite was detected)", "setting": "[2]", "result": "U"}]}, {"smiles": "O=C1C[C@@H](c2ccc(O)c(O)c2)Oc2c1ccc(O[C@@H]1O[C@H](CO)[C@@H](O)[C@H](O)[C@H]1O)c2O", "note": "[M′1, flavanomarein]", "values": [{"measurement": "prototype components after tail vein injection", "setting": "[2]", "result": "detected"}, {"measurement": "Location (matrix in which the metabolite was detected)", "setting": "[2]", "result": "P, U"}]}, {"smiles": "O=C(/C=C/c1cccc(O)c1)c1ccc(O[C@@H]2O[C@H](CO)[C@@H](O)[C@H](O)[C@H]2O)c(O)c1O", "note": "[M′11]", "values": [{"measurement": "Location (matrix in which the metabolite was detected)", "setting": "[2]", "result": "U"}]}, {"smiles": "O=C(/C=C/c1ccc(O)cc1)c1ccc(O[C@@H]2O[C@H](CO)[C@@H](O)[C@H](O)[C@H]2O)c(O)c1O", "note": "[M′12]", "values": [{"measurement": "Location (matrix in which the metabolite was detected)", "setting": "[2]", "result": "U"}]}, {"smiles": "O=C(/C=C/c1ccc(O)c(O)c1)c1ccc(O[C@@H]2O[C@H](CO)[C@@H](O)[C@H](O)[C@H]2O)cc1O", "note": "[M′13]", "values": [{"measurement": "Location (matrix in which the metabolite was detected)", "setting": "[2]", "result": "P, U"}]}, {"smiles": "O=C(CCc1ccccc1)c1ccc(O[C@@H]2O[C@H](CO)[C@@H](O)[C@H](O)[C@H]2O)c(O)c1O", "note": "[M′17]", "values": [{"measurement": "Location (matrix in which the metabolite was detected)", "setting": "[2]", "result": "U"}]}, {"smiles": "O=C(/C=C/c1ccc(O)c(O)c1)c1ccc(O[C@@H]2O[C@H](CO)[C@@H](O)[C@H](O)[C@H]2O)c(O)c1O", "note": "[marein]", "values": [{"measurement": "prototype in plasma and urine after gavage", "setting": "[1]; oral gavage 200 mg/kg, 200 mg/kg", "result": "no prototype components were found; also recorded: not detected in the original form"}, {"measurement": "marein in plasma after intragastric administration", "setting": "[1]; preliminary experiments of the team", "result": "no marein was found in plasma"}, {"measurement": "prototype components after tail vein injection", "setting": "[2]", "result": "detected"}, {"measurement": "Location (matrix in which the metabolite was detected)", "setting": "[2]", "result": "P, U"}, {"measurement": "CLint (intrinsic clearance rate)", "setting": "[3]; SD rat liver microsomes", "result": "0.0065 mL·(min·mg protein)^−1"}, {"measurement": "t1/2 (in vitro metabolic half-life in liver microsomes)", "setting": "[3]; SD rat liver microsomes", "result": 2.961538, "unit": "h"}, {"measurement": "ER (liver extraction rate)", "setting": "[3]; SD rat, ER=CLH/Q", "result": "0.15 and 0.1506"}, {"measurement": "CLH (liver clearance rate)", "setting": "[3]; SD rat, Q 66 ml/min/kg", "result": 9.9382, "unit": "mL·min/kg"}, {"measurement": "CL′int (in vivo intrinsic clearance rate)", "setting": "[3]; SD rat, scaled with 40 g liver/kg, 45 mg microsomal protein/g liver", "result": 11.7000, "unit": "mL·min/kg"}, {"measurement": "half-life", "setting": "[3]; SD, rat, liver microsomes, pH 7.4, SD rat liver microsomes, read-out: t1/2 (in vitro metabolic half-life in liver microsomes)", "result": 2.96, "unit": "h"}, {"measurement": "Ln (area%)", "setting": "[3]; incubation 0 min", "result": 4.61}, {"measurement": "Area% (remaining percentage)", "setting": "[3]; incubation 0 min, 0 min regarded as 100%", "result": 100, "unit": "%"}, {"measurement": "Ln (area%)", "setting": "[3]; incubation 5 min", "result": 4.59}, {"measurement": "Area% (remaining percentage)", "setting": "[3]; incubation 5 min", "result": 98.69, "unit": "%"}, {"measurement": "Ln (area%)", "setting": "[3]; incubation 15 min", "result": 4.46}, {"measurement": "Area% (remaining percentage)", "setting": "[3]; incubation 15 min", "result": 86.70, "unit": "%"}, {"measurement": "Ln (area%)", "setting": "[3]; incubation 30 min", "result": 4.41}, {"measurement": "Area% (remaining percentage)", "setting": "[3]; incubation 30 min", "result": 82.34, "unit": "%"}, {"measurement": "Ln (area%)", "setting": "[3]; incubation 45 min", "result": 4.36}, {"measurement": "Area% (remaining percentage)", "setting": "[3]; incubation 45 min", "result": 77.93, "unit": "%"}, {"measurement": "Ln (area%)", "setting": "[3]; incubation 60 min", "result": 4.22}, {"measurement": "Area% (remaining percentage)", "setting": "[3]; incubation 60 min", "result": 68.01, "unit": "%"}, {"measurement": "Ln (area%)", "setting": "[3]; incubation 90 min", "result": 4.21}, {"measurement": "Area% (remaining percentage)", "setting": "[3]; incubation 90 min", "result": 67.21, "unit": "%"}, {"measurement": "Ln (area%)", "setting": "[3]; incubation 120 min", "result": 4.14}, {"measurement": "Area% (remaining percentage)", "setting": "[3]; incubation 120 min", "result": 62.76, "unit": "%"}, {"measurement": "metabolic stability in liver microsomes", "setting": "[3]; rat liver microsomes", "result": "good"}, {"measurement": "marein in blood after drinking C. tinctoria tea", "setting": "[4]", "result": "no marein is detected"}]}]}
